Measurements reported in the NIST ThermoML archive (doi:10.1021/je100765j).

Experiments:
[1] = 101.33 kPa, Liquid; for speed of sound: Sing-around technique in a fixed-path interferometer; for mass density: Vibrating tube method
[2] = refractive index (Na D-line) (dimensionless); conditions: 101.33 kPa, Liquid, Standard Abbe refractometry

CC(C)(C)Cl [2-chloro-2-methylpropane]
Conditions | mass density, [1] [kg/m3] | refractive index, [2] | speed of sound, [1] [m/s]
283.15 K | 855.249 | 1.39115 | 1046.9
288.15 K | 849.243 | 1.38821 | 1025.5
293.15 K | 843.191 | 1.38522 | 1004.1
298.15 K | 837.096 | 1.38225 | 983.25
303.15 K | 830.958 | 1.37921 | 961.51
308.15 K | 824.772 | 1.37619 | 940.46
313.15 K | 818.536 | 1.37312 | 919.41

CCCCCl [1-chlorobutane]
Conditions | mass density, [1] [kg/m3] | refractive index, [2] | speed of sound, [1] [m/s]
283.15 K | 897.339 | 1.4075 | 1180.1
288.15 K | 891.855 | 1.40481 | 1159.5
293.15 K | 886.335 | 1.40212 | 1138.8
298.15 K | 880.705 | 1.3995 | 1118.2
303.15 K | 875.204 | 1.39672 | 1097.6
308.15 K | 869.585 | 1.39395 | 1077.2
313.15 K | 863.882 | 1.39131 | 1056.9

CC(C)CCl [1-chloro-2-methylpropane]
Conditions | mass density, [1] [kg/m3] | refractive index, [2] | speed of sound, [1] [m/s]
283.15 K | 888.845 | 1.40354 | 1141.7
288.15 K | 883.211 | 1.4008 | 1120.7
293.15 K | 877.539 | 1.39802 | 1099.6
298.15 K | 871.833 | 1.39529 | 1078.7
303.15 K | 866.096 | 1.39245 | 1057.8
308.15 K | 860.319 | 1.38963 | 1037
313.15 K | 854.502 | 1.38683 | 1016.3

CC(C)OC(C)C [diisopropyl ether]
Conditions | mass density, [1] [kg/m3] | refractive index, [2] | speed of sound, [1] [m/s]
283.15 K | 733.833 | 1.37358 | 1065.5
288.15 K | 728.692 | 1.37084 | 1043.1
293.15 K | 723.509 | 1.36812 | 1020.6
298.15 K | 718.289 | 1.36525 | 998.27
303.15 K | 713.032 | 1.36242 | 976.02
308.15 K | 707.727 | 1.35956 | 953.94
313.15 K | 702.378 | 1.35667 | 932.01

CCC(C)Cl (stereo not given) [2-chlorobutane]
Conditions | mass density, [1] [kg/m3] | refractive index, [2] | speed of sound, [1] [m/s]
283.15 K | 884.34 | 1.40226 | 1127.7
288.15 K | 878.756 | 1.39953 | 1107.2
293.15 K | 873.13 | 1.3968 | 1086.7
298.15 K | 867.474 | 1.39404 | 1066.2
303.15 K | 861.779 | 1.39125 | 1045.9
308.15 K | 856.044 | 1.38844 | 1025.3
313.15 K | 850.266 | 1.38562 | 1005.3
